{"source": "patent US8921362B2", "about": "“6,7-dialkoxy quinazoline derivatives and methods of treating drug resistant and other tumors” (Natco Pharma Limited, priority 2008, dated 2014)", "key": {"[1]": {"system": "A549 human lung tumors", "assay": "Subcutaneous lung tumors in nude mice", "type": "in vivo", "conditions": "100 mg/Kg dose", "text": "Nude mice were implanted with 2×10^6 A549 cells in the right hind limb flank."}, "[2]": {"assay": "Acute toxicity (LD0, LD50)", "type": "in vivo", "conditions": "po, mice, single dose", "protocol": "[…]. The doses 500, 750, 1000 and 2000 mg/Kg were administered orally. Each group included 5 mice. […] The survived animals were autopsied for asserting the absorption of compound through g.i.t. The LD50 was determined according to the method described in Litchfield and Wilcoxon (J. Pharmacol. Exp. Ther. 1949, 96:99-113)."}, "[3]": {"conditions": "po, Swiss Albino mice, suspended in 2% gum acacia"}, "[4]": {"assay": "30 day repeated dose study", "conditions": "both sexes, dog, in vivo, po, beagle dogs, orally by capsule, read-out: no observed adverse effect level (NOAEL)", "protocol": "The methods followed were as per CPMP/SWP/1042/99 (July 2000) and ICH S3A (March (1995)) guidelines. Prior to the 30 day repeated dose study, a dose range finding study was conducted, which included single dose MTD study followed by a 10 day repeated dose study. For the single dose MTD study, two dogs (1 male and 1 female) of beagle breed, obtained from Marshall's Farm, China, were used. The route of dosing was oral, by gelatin capsule. Based on the results of the dose range finding study, doses for the 30 days study were selected.\nThe 30 day repeated dose study employed 12 male and 12 female dogs (Marshall's Farm, China). The dogs were acclimatized for a minimum period of 2 weeks and randomly divided into four main groups (G1-G4), each group comprising of 3 dogs per sex. […]\n(§1) The study also tracked body weight (weekly), food consumption (daily), opthalmological status (start and end), hematological and biochemical analyses (start and end), toxicokinetics analysis of plasma (start and end). At the end of the study, all dogs were euthanized by a humane and accepted procedure, subjected to a gross post-mortem examination, organ weights (absolute and relative) were determined, and histopathological examination was carried out."}, "[5]": {"system": "VEGFR", "assay": "Down regulation of receptors, western blot in A549 cells", "type": "cell-based, human", "conditions": "FIG. 8", "protocol": "(§2) Levels of Erb-1, Erb-2, Erb-3, Erb-4 and VEGFR were determined by western blot analysis."}, "[6]": {"system": "A549 luciferase expressing cells", "assay": "Nude mice implanted with A549 luciferase expressing cells", "type": "in vivo", "conditions": "oral and ip routes, FIGS. 6 & 7"}, "[7]": {"assay": "in vivo", "conditions": "both, Swiss albino, mouse, po"}, "[8]": {"system": "H1299 and A549 cells", "assay": "Matrigel invasion assay", "type": "cell-based, human", "conditions": "48 hr treatment, FIG. 2", "protocol": "The in vitro invasiveness of H1299 and A549 cells in the presence of various concentrations of NRC compounds (as determined by MTT assay) was assessed using a modified Boyden chamber assay. Cells were treated with these compounds for 48 hr. 1×10^6 cells were suspended in 600 μl of serum-free medium supplemented with 0.2% BSA and placed in the upper compartment of the transwell chambers (Corning Costar Fisher Scientific cat #07-200-158, Pittsburgh Pa.) coated with matrigel (0.7 mg/ml). The lower compartment of the chamber was filled with 200 μl of serum medium and the cells were allowed to migrate for 24 hr. After incubation, the cells were fixed and stained with Hema-3 and quantified as previously described (Mohanam et al. 1993). The migrated cells were quantified as percent invasion."}, "[9]": {"assay": "Acute oral gavage toxicity (MTD)", "description": "(§3) 20 male and 20 female Swiss albino mice were randomly divided into four groups (G1-G4). Each group was 5 male and 5 female Swiss albino mice. […] G1 was treated with placebo and served as a control. […] The mid dose group animals (G3-treated with 500 mg/kg b.wt) were administered the dose formulation twice with a gap of approximately 1 hour. Animals from high dose group (G4-treated with 1000 mg/kg b.wt) received the dose formulation four times with a gap of approximately one hour."}, "[10]": {"system": "A549 luciferase expressing cells", "assay": "Lung tissue harvested from nude mice after treatment", "type": "in vivo", "conditions": "oral/ip routes, various concentrations, FIG. 4"}, "[11]": {"biological_target": "ERBB4 (Homo sapiens, UniProt Q15303)", "sequence (Q15303 26-1308)": "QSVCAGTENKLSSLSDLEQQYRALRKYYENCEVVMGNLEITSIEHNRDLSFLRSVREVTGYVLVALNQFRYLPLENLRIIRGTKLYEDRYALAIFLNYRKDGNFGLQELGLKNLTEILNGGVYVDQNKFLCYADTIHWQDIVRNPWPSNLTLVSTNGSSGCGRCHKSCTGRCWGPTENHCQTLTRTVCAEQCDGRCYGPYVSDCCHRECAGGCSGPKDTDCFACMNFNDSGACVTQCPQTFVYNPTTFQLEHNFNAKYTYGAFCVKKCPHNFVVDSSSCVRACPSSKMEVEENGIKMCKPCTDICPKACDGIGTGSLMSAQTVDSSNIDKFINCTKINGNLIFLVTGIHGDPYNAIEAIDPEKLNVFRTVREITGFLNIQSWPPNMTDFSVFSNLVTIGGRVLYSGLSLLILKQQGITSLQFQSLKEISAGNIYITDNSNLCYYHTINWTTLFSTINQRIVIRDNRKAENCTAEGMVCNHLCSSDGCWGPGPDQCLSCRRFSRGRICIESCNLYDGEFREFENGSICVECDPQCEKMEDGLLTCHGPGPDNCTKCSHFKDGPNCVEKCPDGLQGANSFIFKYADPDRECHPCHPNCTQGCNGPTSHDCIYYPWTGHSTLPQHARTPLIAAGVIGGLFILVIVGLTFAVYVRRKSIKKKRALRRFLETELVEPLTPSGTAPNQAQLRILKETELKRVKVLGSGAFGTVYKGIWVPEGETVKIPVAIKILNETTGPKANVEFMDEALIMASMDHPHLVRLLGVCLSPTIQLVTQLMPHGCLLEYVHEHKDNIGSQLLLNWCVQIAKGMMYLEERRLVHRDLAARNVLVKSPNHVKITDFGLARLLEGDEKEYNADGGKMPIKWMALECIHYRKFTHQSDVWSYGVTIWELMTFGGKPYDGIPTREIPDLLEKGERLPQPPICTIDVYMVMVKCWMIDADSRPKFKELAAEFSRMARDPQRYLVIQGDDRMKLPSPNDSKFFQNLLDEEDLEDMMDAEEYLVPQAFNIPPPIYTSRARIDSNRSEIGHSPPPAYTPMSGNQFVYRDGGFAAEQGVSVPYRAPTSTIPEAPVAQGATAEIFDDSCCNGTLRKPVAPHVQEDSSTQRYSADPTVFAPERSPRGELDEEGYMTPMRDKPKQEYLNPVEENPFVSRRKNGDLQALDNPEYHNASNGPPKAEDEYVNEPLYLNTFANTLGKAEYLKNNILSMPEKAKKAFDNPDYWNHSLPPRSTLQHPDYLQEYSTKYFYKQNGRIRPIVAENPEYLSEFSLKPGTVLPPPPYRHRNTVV", "assay": "Down regulation of receptors, western blot in A549 cells", "type": "cell-based", "set-up": "endogenous in cells; host or cells: A549", "conditions": "FIG. 8", "protocol": "as §2"}, "[12]": {"biological_target": "ERBB2 (Homo sapiens, UniProt P04626)", "sequence (P04626 23-1255)": "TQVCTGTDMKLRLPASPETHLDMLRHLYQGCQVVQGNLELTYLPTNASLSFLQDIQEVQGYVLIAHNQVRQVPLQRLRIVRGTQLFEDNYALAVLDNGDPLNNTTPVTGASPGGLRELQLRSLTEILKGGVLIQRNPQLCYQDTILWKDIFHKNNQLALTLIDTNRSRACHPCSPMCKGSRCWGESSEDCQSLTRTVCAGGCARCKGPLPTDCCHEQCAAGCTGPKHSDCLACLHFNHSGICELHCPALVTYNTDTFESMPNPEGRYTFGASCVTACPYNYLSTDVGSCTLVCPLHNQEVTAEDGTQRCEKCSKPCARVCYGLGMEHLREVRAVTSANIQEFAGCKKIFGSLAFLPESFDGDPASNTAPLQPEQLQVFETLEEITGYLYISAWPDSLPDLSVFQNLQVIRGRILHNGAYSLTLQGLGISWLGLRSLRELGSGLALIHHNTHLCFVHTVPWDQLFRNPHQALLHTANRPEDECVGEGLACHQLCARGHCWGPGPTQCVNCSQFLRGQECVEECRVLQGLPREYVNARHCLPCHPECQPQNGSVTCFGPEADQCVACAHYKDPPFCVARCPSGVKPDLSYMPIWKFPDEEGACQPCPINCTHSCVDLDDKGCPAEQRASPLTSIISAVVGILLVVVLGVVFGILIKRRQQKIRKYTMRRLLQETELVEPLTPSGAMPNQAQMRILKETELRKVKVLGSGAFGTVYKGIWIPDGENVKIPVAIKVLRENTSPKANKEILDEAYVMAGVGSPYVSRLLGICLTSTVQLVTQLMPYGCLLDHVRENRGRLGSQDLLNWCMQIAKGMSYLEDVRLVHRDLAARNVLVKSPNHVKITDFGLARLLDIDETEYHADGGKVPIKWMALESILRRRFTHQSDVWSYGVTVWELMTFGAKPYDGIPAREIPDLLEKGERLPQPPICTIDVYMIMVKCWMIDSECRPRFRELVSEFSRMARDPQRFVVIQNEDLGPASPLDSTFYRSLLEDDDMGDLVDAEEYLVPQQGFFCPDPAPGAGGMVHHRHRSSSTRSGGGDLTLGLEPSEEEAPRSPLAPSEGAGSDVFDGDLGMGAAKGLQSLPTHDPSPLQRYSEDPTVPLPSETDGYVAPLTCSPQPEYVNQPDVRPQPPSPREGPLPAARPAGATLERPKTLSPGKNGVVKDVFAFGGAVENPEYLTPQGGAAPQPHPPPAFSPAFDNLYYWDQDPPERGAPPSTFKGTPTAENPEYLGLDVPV", "assay": "Down regulation of receptors, western blot in A549 cells", "type": "cell-based", "set-up": "endogenous in cells; host or cells: A549", "conditions": "FIG. 8", "protocol": "as §2"}, "[13]": {"system": "A549 and H1299 cells", "description": "Solubilization of the cells by the addition of a detergent results in the liberation of the crystals, which are solubilized. The number of surviving cells is directly proportional to the level of the formazan product created. The color can then be quantified using a simple colorimetric assay. This assay was done using 0-1000 ng/ml concentrations of Erlotinib and the test compounds in A549 and H1299 cells."}, "[14]": {"system": "Salmonella typhimurium (TA 98, TA 100, TA 102, TA 1535 and TA 1537)", "assay": "Ames bacterial reverse mutation assay", "type": "cell-based", "conditions": "0.0125-1.2500 mg/plate, with and without S9", "protocol": "The present study was conducted by the direct plate incorporation method with five tester strains of Salmonella typhimurium (TA 98, TA 100, TA 102, TA 1535 and TA 1537). […] Simultaneously, negative control cultures received DMSO and the respective positive controls received the mutagens 2-Amino anthracene, 2-Nitrofluorene, Sodium azide, 9-Aminoacridine and Mitomycin C (Sigma, St. Louis). In order to study the role of metabolic activation, cultures were incubated both with and without S9 mixture. The induction of Histidine positive colonies was computed and results were statistically treated for comparison."}, "[15]": {"assay": "Acute oral gavage toxicity (MTD)", "conditions": "G4, 1000 mg/kg body wt., rats"}, "[16]": {"assay": "Cardiovascular parameters in telemetered dogs", "type": "in vivo", "conditions": "male Beagle dogs", "protocol": "The study was conducted in accordance with ICH “S7A Safety Pharmacology Studies for Human Pharmaceuticals, Note for Guidance on Safety Pharmacology Studies for Human Pharmaceuticals, July 2001”. The doses tested were 0, 15, 30 and 60 mg/kg b.wt. given orally by gelatin capsule. Four male Beagle dogs, each implanted with a TL1IM2-D70-PCT transmitter (Data Sciences International, USA), were used for the study. During the study, the dogs were administered 4 oral treatments representing placebo and all test substance treatment groups with a three day (˜72 hour) wash-out period between each administration, using a Latin square cross-over design.\nOn dosing days, the telemetered dogs were observed once before commencement of data collection, continuously through 2 hours post-dose remotely and ˜8 hours post-dose for changes in behaviour. Cardiovascular parameters (systolic, diastolic and mean blood pressure, pulse pressure and heart rate) were recorded continuously for ˜60 minutes before dosing and up to 24 hours after dosing. Systolic, diastolic and mean blood pressures, pulse pressure and heart rate were obtained from the femoral artery waveform. Electrocardiograms were recorded continuously for ˜60 minutes before dosing and up to 24 hours after dosing. […] Heart rate and QT intervals were determined from the ECG's."}, "[17]": {"assay": "Respiratory function, whole body plethysmograph", "type": "in vivo, Wistar rats", "conditions": "75, 125 and 250 mg/kg body weight, oral, 3 hours", "protocol": "This study evaluated the effect of NRC-2694A monohydrochloride on respiratory function in conscious Wistar rats following administration of a single dose using a whole body plethysmograph. The study was conducted in accordance with “S7A Safety Pharmacology Studies for Human Pharmaceuticals, ICH” issued July 2001. The study used a parallel design with one vehicle and three test item treated groups. […] Male Wistar rats were placed in plethysmography chambers and baseline respiratory parameters were recorded for 30 minutes. Following drug administration respiratory parameters were recorded continuously for 3 hours."}, "[18]": {"assay": "Functional observational battery (FOB)", "type": "in vivo, Wistar rats", "conditions": "75, 125 and 250 mg/kg b.wt single oral dose, 60-120 min post treatment", "protocol": "The study was conducted in accordance with “[…] Safety Pharmacology Studies for Human Pharmaceuticals, ICH” July 2001, and as per this study protocol. […] Rats that had been fasted for 16 to 18 hours (access to water was not interrupted) were dosed with the compound or water. The rats were administered the compound in an aqueous formulation at three levels, 75, 125 and 250 mg/kg b.wt, as a single oral dose by gavage. The control group received water. The rats were subjected to the FOB 60-120 min. after drug administration.\nAnimals were subjected to the FOB one at a time except for the multiple activity cage where four animals were placed in four different cages simultaneously. Once complete, the animals were returned to their home cage and the cage placed back on the stand."}, "[19]": {"assay": "Toxicokinetics in 30 day repeated dose study", "type": "in vivo, beagle dogs", "conditions": "for Tmax: beagle, dog, plasma, po, read-out: median Tmax", "protocol": "The 30 day repeated dose study employed 12 male and 12 female dogs (Marshall's Farm, China). The dogs were acclimatized for a minimum period of 2 weeks and randomly divided into four main groups (G1-G4), each group comprising of 3 dogs per sex. The animals were dosed orally with capsules of NRC-2694A for a period of 30 consecutive days at dose levels of 10 mg/kg b.wt/day (G2-low dose), 20 mg/kg b.wt/day (G3-mid dose) and 40 mg/kg b. wt/day (G4-high dose). […] The control group (G1-0 mg/kg b. wt/day) animals were dosed by oral capsule with placebo.\nas §1\nThe toxicokinetic parameters viz."}, "[20]": {"assay": "in vivo", "conditions": "both, Swiss albino, mouse, po", "remark": "listed apart in the source", "description": "as §3"}}, "note": "Structures can show the parent of a compound that is named as a salt. Where two headings read alike, the source gives them in different places.", "data": [{"smiles": "C#Cc1cccc(Nc2ncnc3cc(OCCOC)c(OCCOC)cc23)c1", "note": "[Erlotinib HCl, N-(3-Ethylnylphenyl)-6,7-bis(2-methoxyethoxy)-4-quinazolinamine]", "values": [{"measurement": "tumor regression", "setting": "[1]", "value": "tumors were still present"}, {"measurement": "LD50 at 14 days", "setting": "[2]; both sexes, mouse, in vivo", "value": 805, "unit": "mg/kg"}, {"measurement": "LD0", "setting": "[2]; no mortality at end of 7 days", "value": 500, "unit": "mg/kg"}, {"measurement": "MTD", "setting": "[3]", "value": 500, "unit": "mg/kg"}, {"measurement": "NOAEL at 30 days", "setting": "[4]", "value": 5, "unit": "mg/kg/day"}, {"measurement": "VEGFR levels", "setting": "[5]", "value": "no such indication was seen"}, {"measurement": "tumors at the end of 42 days treatment", "setting": "[6]", "value": "residual tumors were still present"}, {"measurement": "MTD at 72 h", "setting": "[7]", "value": 500, "unit": "mg/kg"}, {"measurement": "invasion", "setting": "[8]", "value": "dose dependent decrease in invasion"}, {"measurement": "MTD at 14 days", "setting": "[9]; both, Swiss albino, mouse, in vivo, po", "value": 500, "unit": "mg/kg"}, {"measurement": "residual tumors in harvested lungs", "setting": "[10]", "value": "tumors were still present"}, {"measurement": "Erb B4 levels", "setting": "[11]", "value": "no such indication was seen"}, {"measurement": "Erb B2 levels", "setting": "[12]", "value": "no such indication was seen"}, {"measurement": "IC50", "setting": "[13]", "value": 0.836, "unit": "µg/mL"}]}, {"smiles": "C#Cc1cccc(Nc2ncnc3cc(OC)c(OCCCN4CCOCC4)cc23)c1.Cl", "note": "[NRC-2694 monohydrochloride, N-(3-ethynylphenyl)-7-methoxy-6-[3-(4-morpholinyl)propoxy]-4-quinazolinamine mono hydrochloride]", "values": [{"measurement": "NOAEL at 30 days", "setting": "[4]", "value": 10, "unit": "mg/kg/day"}, {"measurement": "mutagenicity (His revertant colonies)", "setting": "[14]", "value": "non-mutagenic"}, {"measurement": "chromodacryoorhea (animals affected)", "setting": "[15]", "value": "10/10"}, {"measurement": "mild to severe lethargy (animals affected)", "setting": "[15]", "value": "10/10"}, {"measurement": "piloerection (animals affected)", "setting": "[15]", "value": "10/10"}, {"measurement": "ptosis (animals affected)", "setting": "[15]", "value": "4/10"}, {"measurement": "weakness (animals affected)", "setting": "[15]", "value": "1/10"}, {"measurement": "cardiovascular parameters (blood pressure, pulse pressure, heart rate, QT, QTcf)", "setting": "[16]; 15, 30 and 60 mg/kg b.wt. oral", "value": "no significant negative effects on cardiovascular parameters"}, {"measurement": "no observed effect level", "setting": "[16]; cardiovascular parameters, oral", "value": 60, "unit": "mg/kg b.wt."}, {"measurement": "respiratory rate, tidal volume, minute volume, and Penh", "setting": "[17]", "value": "did not influence any of the observed parameters"}, {"measurement": "functional observational battery", "setting": "[18]", "value": "did not show any adverse effects at the tested doses"}, {"measurement": "Tmax", "setting": "[19]; day 1, female, 10 mg/kg", "value": 2, "unit": "h"}, {"measurement": "Tmax", "setting": "[19]; day 1, female, 40 mg/kg", "value": 4, "unit": "h"}, {"measurement": "Tmax", "setting": "[19]; day 1, male, 10 mg/kg", "value": 2, "unit": "h"}, {"measurement": "Tmax", "setting": "[19]; day 1, male, 20 mg/kg", "value": 3, "unit": "h"}, {"measurement": "Tmax", "setting": "[19]; day 1, male, 40 mg/kg", "value": 2, "unit": "h"}, {"measurement": "Tmax", "setting": "[19]; day 30, female, 20 mg/kg", "value": 4, "unit": "h"}, {"measurement": "Cmax", "setting": "[19]; three dose levels, male and female dogs", "value": "dose-dependent change in the Cmax"}, {"measurement": "toxic signs or mortality", "setting": "[9]; 250 mg/kg and 500 mg/kg, oral gavage, mice", "value": "did not produce any toxic signs or mortality"}, {"measurement": "MTD at 14 days", "setting": "[20]", "value": 1000, "unit": "mg/kg"}]}]}
